Data as given in US20160187320A1, “ASSAY FOR SCREENING COMPOUNDS THAT SELECTIVELY DECREASE THE NUMBER OF CANCER STEM CELLS” (THE ROGOSIN INSTITUTE, priority 2011, published 2016).

How the values were obtained:
[1] = system: Docetaxel resistant (DR) cells (DU145-DR, 22RV1-DR); assay: Cross-resistance of Docetaxel resistant (DR) cells; format: cell-based, human; conditions: data not shown
[2] = system: 22RV1-DR and DU145-DR (resistant) cells; assay: Colony formation assay, Docetaxel resistant cells; format: cell-based, human; conditions: continuous Docetaxel for 21 days
Method: (§1) Cell viability was analyzed using the Cell titer 96 Aquos Non-Reactive Cell Proliferation Assay (MTS) kit (Promega Corp., Madison, Wis.). Cells were seeded at a density of 10^4 in 96-well culture dishes and 24 hours later medium was removed and replaced with new medium alone (control) or medium containing drugs. After 72 hours, color absorbance was measured on a microplate spectrophotometer (Molecular Dynamics) at 450 nm (test wavelength) and 620 nm (reference wavelength). The percentage of surviving cells was estimated by dividing the A 450 nm-A 620 nm of treated cells by the A 450 nm-A 620 nm of control cells. Clonogenic survival assays in response to drug treatment were performed by plating 10^3 cells in 35 mm culture dishes. After 24 hours, cells were left untreated (control) or treated with drugs. Next day, medium was changed and the cells kept growing in fresh medium without any drug or under continuous exposure to drugs. For these continuous exposure experiments, medium plus drugs were replaced every 3 days until clones of drug-resistant cells appeared. Cells were then fixed with 4% paraformaldehyde in PBS, stained with crystal violet solution and formed colonies were visually counted.

[3] = system: 22RV1 and DU145 parental (sensitive) cells; assay: Colony formation assay, Docetaxel sensitive parental cells; format: cell-based, human; conditions: continuous Docetaxel for 21 days (25 nM in 22RV1, 5 nM in DU145)
Method: as §1

[4] = system: DU145-CK19 promoter-GFP stable cells; assay: Flow cytometry of GFP populations surviving Docetaxel; format: cell-based, human; conditions: Docetaxel 10 nM, 48 hours
Text: CK19 gene promoter region was amplified from DU145 cells genomic DNA by PCR with specific primer sets (Fw 5′-[…]-3′ (SEQ ID NO: 1) and Rv 5′-[…]-3′ (SEQ ID NO: 2)) as described previously (Tripathi et al., 2005. The PCR products were digested with Ase I and Hind III and cloned into pEGFPN1 vector (Clontech, Mountain View, Calif.) previously digested with the same enzymes. As a result, the CMV promoter was removed from the original vector and the GFP expression was under control of the CK19 promoter. The final construct was confirmed by digestion and sequencing analysis. DU145 cells were transfected with pCK19-GFP construct using Lipofectamine Plus 2000 (Invitrogen). After 24 hours, medium was replaced with fresh medium and stably expressing cells selected in the presence of G418 (Invitrogen). Positive clones were confirmed by direct microscopy and immunofluorescence and also by PCR amplification of GFP coding region using specific primers (Fw 5′-[…]-3′ (SEQ ID NO: 3) and Rv 5′-[…]-3′ (SEQ ID NO: 4)).
Flow cytometry analysis of subpopulations of prostate cancer cells were carried out following standard procedures. Intracellular CK19 and CK18 expression was performed in single-cell suspensions fixed with 70% ethanol, whereas the expression of cell surface HLA class I and GFP was determined in fresh cell samples (without fixation). […] A minimum of 10^4 cells were measured per sample.

DU145 cells = assay: Cell viability assay (MTS), parental DU145; format: cell-based; conditions: Homo sapiens, DU-145; parental DU145, 72 hours; read-out: Docetaxel IC50
Method: (§2) Human hormone-independent prostate cancer cell lines, DU-145 and 22RV1, were obtained from American Type Culture Collection (ATCC) and maintained in RPMI 1640 medium (Gibco, Invitrogen Corp., Carlsbad, Calif.) supplemented with 10% FBS without antibiotics. Cells were grown at 37° C. in a humidified atmosphere with 5% CO2. DU145 and 22RV1 cells were selected in order to generate a prostate cancer Docetaxel resistance model. […] Thus, the generation of acquired Docetaxel resistance in these two phenotypically distinct cell lines facilitated an approach to study the molecular processes involved in the acquisition of Docetaxel resistance. Docetaxel resistant clones, DU-145-DR and 22RV1-DR, were selected by culturing cells with Docetaxel in a dose-escalation manner. Initial culture was at 5 nM Docetaxel. […]
(§3) Cell viability was analyzed using the Cell titer 96 Aquos Non-Reactive Cell Proliferation Assay (MTS) kit (Promega Corp., Madison, Wis.). […] After 72 hours, color absorbance was measured on a microplate spectrophotometer (Molecular Dynamics) at 450 nm (test wavelength) and 620 nm (reference wavelength). […] Cells were then fixed with 4% paraformaldehyde in PBS, stained with crystal violet solution and formed colonies were visually counted.

22RV1 cells = assay: Cell viability assay (MTS), parental 22RV1; format: cell-based; conditions: Homo sapiens; parental 22RV1, 72 hours; read-out: Docetaxel IC50
Method: as §2, §3

[5] = system: DU145-CK19 promoter-GFP stable cells sorted by GFP/HLA class I; assay: Colony formation assay of GFP/HLA class I sorted cells under Docetaxel; format: cell-based, human; conditions: Docetaxel 10 nM continuously
Method: as §1

22RV1-DR cells = assay: Cell viability assay (MTS), Docetaxel resistant 22RV1-DR; format: cell-based, human; conditions: for IC50: Homo sapiens
Method: as §2, with “Docetaxel. After the sensitive clones were no longer present and the surviving DU-145 and 22RV1 cells repopulated the flask, the concentration of Docetaxel was increased to 10 nM and subsequently to 25 nM, 50 nM, 100 nM and 250 nM. 22RV1-DR cells were further exposed to 500 nM Docetaxel. After exposure to each increasing dose of Docetaxel, the remaining surviving cells were maintained in culture medium containing the last selection escalating dose of Docetaxel. The last drug selection concentration at which the cells were exposed was 250 nM for DU-145-DR and 500 nM for 22RV1-DR, in order to avoid reversibility of the acquired Docetaxel resistance phenotype. The process of acquired drug resistance took 9 months for DU-145-DR and 6.5 months for 22RV1-DR.” for “Docetaxel.”
as §3

DU145-DR cells = assay: Cell viability assay (MTS), Docetaxel resistant DU145-DR; format: cell-based, human; conditions: for IC50: Homo sapiens
Method: as §2, with “Docetaxel. After the sensitive clones were no longer present and the surviving DU-145 and 22RV1 cells repopulated the flask, the concentration of Docetaxel was increased to 10 nM and subsequently to 25 nM, 50 nM, 100 nM and 250 nM. 22RV1-DR cells were further exposed to 500 nM Docetaxel. After exposure to each increasing dose of Docetaxel, the remaining surviving cells were maintained in culture medium containing the last selection escalating dose of Docetaxel. The last drug selection concentration at which the cells were exposed was 250 nM for DU-145-DR and 500 nM for 22RV1-DR, in order to avoid reversibility of the acquired Docetaxel resistance phenotype. The process of acquired drug resistance took 9 months for DU-145-DR and 6.5 months for 22RV1-DR.” for “Docetaxel.”
as §3

SMILES: N.N.[Cl][Pt][Cl] [Cisplatin]
- cross-resistance of Docetaxel resistant cells [1]: cross-resistance

SMILES: CC(=O)O[C@@]12CO[C@@H]1C[C@H](O)[C@@]1(C)C(=O)[C@H](O)C3=C(C)[C@@H](OC(=O)[C@H](O)[C@@H](NC(=O)OC(C)(C)C)c4ccccc4)C[C@@](O)([C@@H](OC(=O)c4ccccc4)[C@H]21)C3(C)C [Docetaxel]
- colony formation [2]: colonies were observed
- colony formation [3]: No colonies were observed
- GFP-negative phenotype, % of the total population after treatment ([4]; initially 6.4±4.3%): 73.1±10.2%
- GFP-positive phenotype, % of the total cell population after treatment ([4]; initially 87.5±10.4%): 28.3±10.6%
- IC50 (DU145 cells): 5 nM
- IC50 (22RV1 cells): 25 nM
- clone formation under continuous exposure [5]: only tumour cells with a GFP-negative/HLA class I-negative phenotype were able to form clones
- fold increase of Docetaxel IC50 (22RV1-DR cells; 22RV1-DR versus 22RV1): 400 fold
- IC50 (22RV1-DR cells; 22RV1-DR acquired resistant cells, 72 hours): 10000 nM
- IC50 (22RV1-DR cells; 22RV1-DR after 12 weeks of drug withdrawal): 50 nM
- fold increase of Docetaxel IC50 (DU145-DR cells; DU145-DR versus DU145): 200 fold
- IC50 (DU145-DR cells; DU145-DR acquired resistant cells, 72 hours): 1000 nM
- IC50 (DU145-DR cells; DU145-DR after 12 weeks of drug withdrawal): 25 nM

SMILES: COc1cccc2c1C(=O)c1c(O)c3c(c(O)c1C2=O)C[C@@](O)(C(=O)CO)C[C@@H]3O[C@H]1C[C@H](N)[C@H](O)[C@H](C)O1 [Doxorubicin]
- cross-resistance of Docetaxel resistant cells [1]: cross-resistance

SMILES: O=C1c2c(O)ccc(O)c2C(=O)c2c(NCCNCCO)ccc(NCCNCCO)c21 [Mitoxantrone]
- cross-resistance of Docetaxel resistant cells [1]: cross-resistance

SMILES: CC(=O)O[C@H]1C(=O)[C@@]2(C)[C@H]([C@H](OC(=O)c3ccccc3)[C@]3(O)C[C@H](OC(=O)[C@H](O)[C@@H](NC(=O)c4ccccc4)c4ccccc4)C(C)=C1C3(C)C)[C@]1(OC(C)=O)CO[C@@H]1C[C@@H]2O [Paclitaxel]
- cross-resistance of Docetaxel resistant cells [1]: cross-resistance

SMILES: CCC1=C[C@@H]2CN(C1)Cc1c([nH]c3ccccc13)[C@@](C(=O)OC)(c1cc3c(cc1OC)N(C)[C@H]1[C@@](O)(C(=O)OC)[C@H](OC(C)=O)[C@]4(CC)C=CCN5CC[C@]31[C@@H]54)C2 [Vinorelbine]
- cross-resistance of Docetaxel resistant cells [1]: cross-resistance
